Among the data in ChEMBL document CHEMBL5465560, “Selectivity Literature for EUbOPEN Chemogenomic Library” (2024) are % of control, % of inhibition and IC50 values, retold here.

Experiment [1] has as its target T1, Protein kinase C epsilon type (Homo sapiens) (UniProt Q02156).
T1 sequence (whole entry): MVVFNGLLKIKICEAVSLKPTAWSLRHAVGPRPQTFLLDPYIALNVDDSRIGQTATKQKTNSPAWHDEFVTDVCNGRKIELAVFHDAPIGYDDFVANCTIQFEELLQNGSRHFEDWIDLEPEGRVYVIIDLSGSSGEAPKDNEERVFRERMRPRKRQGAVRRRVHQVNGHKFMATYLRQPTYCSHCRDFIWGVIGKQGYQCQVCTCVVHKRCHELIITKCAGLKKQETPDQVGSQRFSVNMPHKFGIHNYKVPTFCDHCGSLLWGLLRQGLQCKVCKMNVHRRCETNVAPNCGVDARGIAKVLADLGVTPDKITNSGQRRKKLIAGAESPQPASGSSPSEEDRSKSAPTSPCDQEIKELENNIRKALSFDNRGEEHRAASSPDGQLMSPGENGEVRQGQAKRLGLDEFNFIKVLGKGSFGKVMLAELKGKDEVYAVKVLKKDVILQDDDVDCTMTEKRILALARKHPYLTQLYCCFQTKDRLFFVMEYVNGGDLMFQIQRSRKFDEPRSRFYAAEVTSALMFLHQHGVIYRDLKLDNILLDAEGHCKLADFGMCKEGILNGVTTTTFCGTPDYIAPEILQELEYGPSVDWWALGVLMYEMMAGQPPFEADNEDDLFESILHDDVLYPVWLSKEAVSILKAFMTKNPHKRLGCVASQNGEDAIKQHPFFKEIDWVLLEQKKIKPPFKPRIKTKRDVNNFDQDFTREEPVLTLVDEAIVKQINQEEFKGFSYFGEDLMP
In words: Selectivity interaction (Kinase panel (Z-LYTE Assay)) EUB0001632a PRKCE. To be noted: at 10 µM.

In experiment [2] the target is Serine/threonine-protein kinase MRCK gamma (Homo sapiens) (UniProt Q6DT37). In words: Selectivity interaction (Kinase panel (Z-LYTE Assay)) EUB0001632a CDC42BPG. Particulars: at 10 µM.
Serine/threonine-protein kinase MRCK gamma (Homo sapiens), sequence (Q6DT37 whole entry): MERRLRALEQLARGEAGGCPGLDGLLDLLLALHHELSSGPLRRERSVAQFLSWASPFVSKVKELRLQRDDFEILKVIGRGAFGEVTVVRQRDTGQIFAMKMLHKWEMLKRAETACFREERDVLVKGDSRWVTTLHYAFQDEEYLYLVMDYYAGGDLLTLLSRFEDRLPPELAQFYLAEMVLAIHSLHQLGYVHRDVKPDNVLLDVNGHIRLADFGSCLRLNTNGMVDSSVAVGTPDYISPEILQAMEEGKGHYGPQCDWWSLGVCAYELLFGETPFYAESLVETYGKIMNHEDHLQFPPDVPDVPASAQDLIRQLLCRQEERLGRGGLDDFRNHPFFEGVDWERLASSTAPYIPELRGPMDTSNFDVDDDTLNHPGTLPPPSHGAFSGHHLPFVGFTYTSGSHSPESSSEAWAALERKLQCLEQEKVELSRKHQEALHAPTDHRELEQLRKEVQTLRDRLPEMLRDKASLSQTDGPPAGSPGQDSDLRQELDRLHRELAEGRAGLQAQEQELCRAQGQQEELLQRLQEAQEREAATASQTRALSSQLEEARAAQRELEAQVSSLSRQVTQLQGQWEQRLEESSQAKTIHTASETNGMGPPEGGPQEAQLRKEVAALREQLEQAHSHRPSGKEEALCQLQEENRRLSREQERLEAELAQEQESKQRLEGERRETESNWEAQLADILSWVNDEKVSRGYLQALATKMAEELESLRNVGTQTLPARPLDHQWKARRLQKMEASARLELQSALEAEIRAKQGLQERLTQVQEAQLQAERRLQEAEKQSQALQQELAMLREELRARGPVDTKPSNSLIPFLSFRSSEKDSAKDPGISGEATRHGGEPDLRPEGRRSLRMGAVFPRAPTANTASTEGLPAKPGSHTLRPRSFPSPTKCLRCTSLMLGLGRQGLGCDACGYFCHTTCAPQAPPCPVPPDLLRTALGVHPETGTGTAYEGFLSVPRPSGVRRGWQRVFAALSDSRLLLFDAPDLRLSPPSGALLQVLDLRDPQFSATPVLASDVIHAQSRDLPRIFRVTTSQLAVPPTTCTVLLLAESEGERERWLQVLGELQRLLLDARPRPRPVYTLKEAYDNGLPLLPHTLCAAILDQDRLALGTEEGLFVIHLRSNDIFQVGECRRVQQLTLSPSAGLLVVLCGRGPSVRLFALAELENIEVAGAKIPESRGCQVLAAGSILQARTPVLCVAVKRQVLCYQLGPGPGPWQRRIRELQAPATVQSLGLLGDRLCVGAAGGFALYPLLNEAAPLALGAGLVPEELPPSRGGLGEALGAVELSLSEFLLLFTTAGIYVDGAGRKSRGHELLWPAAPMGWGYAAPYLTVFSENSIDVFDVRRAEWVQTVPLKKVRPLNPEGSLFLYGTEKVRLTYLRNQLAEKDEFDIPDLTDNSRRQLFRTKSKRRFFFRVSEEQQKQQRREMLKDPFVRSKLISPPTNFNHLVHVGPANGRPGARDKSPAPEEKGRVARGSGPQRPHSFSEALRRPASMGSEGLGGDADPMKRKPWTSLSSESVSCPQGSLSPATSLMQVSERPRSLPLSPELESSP
Experiment [3] has as its target Vascular endothelial growth factor receptor 1 (Homo sapiens) (UniProt P17948). As to the kind of experiment: Selectivity interaction (SelectScreen profiling (Invitrogen)) EUB0000607a FLT1. To be noted: at 2 µM.
The test system of experiment [4] is Epidermal growth factor receptor (Homo sapiens), P00533 [L858R]. Particulars: at 10 µM.
Experiment [5] addresses T2, Inhibitor of nuclear factor kappa-B kinase subunit epsilon (Homo sapiens) (UniProt Q14164).
T2 sequence (whole entry): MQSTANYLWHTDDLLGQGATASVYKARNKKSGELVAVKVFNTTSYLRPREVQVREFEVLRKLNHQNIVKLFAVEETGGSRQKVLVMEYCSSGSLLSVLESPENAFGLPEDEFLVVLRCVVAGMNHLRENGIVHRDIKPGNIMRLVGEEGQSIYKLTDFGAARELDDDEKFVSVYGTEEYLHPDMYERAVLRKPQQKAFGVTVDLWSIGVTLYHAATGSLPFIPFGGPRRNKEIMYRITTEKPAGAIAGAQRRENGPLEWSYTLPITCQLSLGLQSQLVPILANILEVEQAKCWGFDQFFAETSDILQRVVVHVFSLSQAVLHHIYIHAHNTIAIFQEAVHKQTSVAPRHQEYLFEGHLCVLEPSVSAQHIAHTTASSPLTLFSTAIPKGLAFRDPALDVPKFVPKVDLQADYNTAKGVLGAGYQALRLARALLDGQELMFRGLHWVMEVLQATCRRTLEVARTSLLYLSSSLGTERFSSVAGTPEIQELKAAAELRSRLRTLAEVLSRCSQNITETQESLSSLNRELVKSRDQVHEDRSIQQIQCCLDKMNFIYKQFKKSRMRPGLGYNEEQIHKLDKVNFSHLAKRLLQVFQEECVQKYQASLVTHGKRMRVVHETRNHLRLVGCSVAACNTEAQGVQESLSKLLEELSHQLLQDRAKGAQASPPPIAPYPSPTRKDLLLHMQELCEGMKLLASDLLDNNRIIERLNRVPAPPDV
As to the kind of experiment: Selectivity interaction (KinomeScan (DiscoverX)) EUB0000666a IKBKE. To be noted: at 10 µM.

Experiment [6] addresses Activin receptor type-1-like (Homo sapiens) (UniProt P37023). In words: Selectivity interaction (KinomeScan (DiscoverX)) EUB0000655a ACVRL1. To be noted: at 10 µM.
Experiment [7] addresses Ribosomal protein S6 kinase alpha-1 (Homo sapiens, UniProt Q15418). As to the kind of experiment: Selectivity interaction (KinomeScan (DiscoverX)) EUB0000311b RPS6KA1. Particulars: at 1 µM.
Experiment [8] concerns the target High affinity nerve growth factor receptor (Homo sapiens, UniProt P04629). In words: Selectivity interaction (Kinase panel (literature)) EUB0001199aCl NTRK1. To be noted: at 1 µM.
Experiment [9] deals with Dual specificity tyrosine-phosphorylation-regulated kinase 1B (Homo sapiens, UniProt Q9Y463). In words: Selectivity interaction (Enzymatic assay (Eurofins)) EUB0001049a DYRK1B.
Dual specificity tyrosine-phosphorylation-regulated kinase 1B, sequence (Q9Y463 whole entry): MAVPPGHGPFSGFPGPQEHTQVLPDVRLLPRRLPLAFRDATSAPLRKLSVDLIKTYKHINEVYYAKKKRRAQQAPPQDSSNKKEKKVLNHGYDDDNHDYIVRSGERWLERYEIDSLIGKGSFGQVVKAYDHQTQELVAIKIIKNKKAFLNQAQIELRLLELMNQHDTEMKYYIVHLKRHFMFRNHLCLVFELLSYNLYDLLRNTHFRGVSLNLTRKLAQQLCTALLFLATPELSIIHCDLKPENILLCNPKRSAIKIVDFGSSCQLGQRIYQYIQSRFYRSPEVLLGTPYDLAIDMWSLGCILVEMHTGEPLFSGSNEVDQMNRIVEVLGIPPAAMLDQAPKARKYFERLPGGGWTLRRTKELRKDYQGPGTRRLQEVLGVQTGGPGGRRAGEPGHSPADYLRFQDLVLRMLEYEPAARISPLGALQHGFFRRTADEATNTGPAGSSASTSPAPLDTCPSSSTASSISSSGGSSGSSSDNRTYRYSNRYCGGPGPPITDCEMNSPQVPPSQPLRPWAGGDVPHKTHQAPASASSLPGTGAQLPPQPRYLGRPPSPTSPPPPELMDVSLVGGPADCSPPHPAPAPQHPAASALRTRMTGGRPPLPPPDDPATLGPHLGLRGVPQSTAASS
For experiment [10], the target named is Activin receptor type-2B (Homo sapiens) (UniProt Q13705). As to the kind of experiment: Selectivity interaction (ProQinase) EUB0000171b ACVR2B.
Activin receptor type-2B (Homo sapiens), sequence (Q13705 whole entry): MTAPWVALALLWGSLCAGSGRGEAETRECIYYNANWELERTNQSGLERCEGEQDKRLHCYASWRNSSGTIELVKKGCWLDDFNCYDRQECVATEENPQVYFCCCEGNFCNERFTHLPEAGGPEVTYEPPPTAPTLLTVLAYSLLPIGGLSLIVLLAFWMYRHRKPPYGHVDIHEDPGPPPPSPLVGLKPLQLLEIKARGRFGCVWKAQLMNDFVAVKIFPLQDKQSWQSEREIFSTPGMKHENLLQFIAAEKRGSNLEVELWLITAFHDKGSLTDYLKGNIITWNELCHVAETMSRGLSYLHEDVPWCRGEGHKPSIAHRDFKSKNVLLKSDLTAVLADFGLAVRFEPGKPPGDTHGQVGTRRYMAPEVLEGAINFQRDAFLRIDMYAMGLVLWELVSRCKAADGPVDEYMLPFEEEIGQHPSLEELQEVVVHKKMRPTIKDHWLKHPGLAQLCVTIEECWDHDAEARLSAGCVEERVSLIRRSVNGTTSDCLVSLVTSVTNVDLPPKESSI
Experiment [11] has as its target T3, Inhibitor of nuclear factor kappa-B kinase subunit beta (Homo sapiens) (UniProt O14920).
T3 sequence (whole entry): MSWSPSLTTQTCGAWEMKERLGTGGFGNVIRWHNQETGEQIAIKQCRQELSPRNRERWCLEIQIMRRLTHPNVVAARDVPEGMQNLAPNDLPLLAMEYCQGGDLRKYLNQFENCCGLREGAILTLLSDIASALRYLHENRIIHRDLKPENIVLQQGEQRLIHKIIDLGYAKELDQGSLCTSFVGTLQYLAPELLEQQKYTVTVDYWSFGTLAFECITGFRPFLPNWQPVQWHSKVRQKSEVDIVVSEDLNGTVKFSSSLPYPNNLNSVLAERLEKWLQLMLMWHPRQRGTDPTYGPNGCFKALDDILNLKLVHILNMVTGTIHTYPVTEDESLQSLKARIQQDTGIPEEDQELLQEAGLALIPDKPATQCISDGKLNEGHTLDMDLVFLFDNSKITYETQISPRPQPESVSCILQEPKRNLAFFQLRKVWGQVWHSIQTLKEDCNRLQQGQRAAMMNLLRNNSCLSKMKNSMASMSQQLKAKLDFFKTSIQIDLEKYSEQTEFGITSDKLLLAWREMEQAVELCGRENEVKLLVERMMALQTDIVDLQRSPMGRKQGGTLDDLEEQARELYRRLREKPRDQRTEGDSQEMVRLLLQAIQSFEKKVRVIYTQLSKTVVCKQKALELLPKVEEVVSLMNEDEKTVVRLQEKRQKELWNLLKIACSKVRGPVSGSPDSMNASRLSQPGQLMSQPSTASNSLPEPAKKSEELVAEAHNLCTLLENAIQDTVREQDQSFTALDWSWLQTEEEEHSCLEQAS
In words: Selectivity interaction (KinomeScan (DiscoverX)) EUB0000595a IKBKB. Particulars: at 10 µM.

Experiment [12] concerns the target 5'-AMP-activated protein kinase catalytic subunit alpha-1 (Homo sapiens, UniProt Q13131). In words: Selectivity interaction (KinomeScan (DiscoverX)) EUB0000595a PRKAA1. Particulars: at 10 µM.

Molecules are shown by their SMILES.

Vascular endothelial growth factor receptor 1 (Homo sapiens), sequence (P17948 whole entry): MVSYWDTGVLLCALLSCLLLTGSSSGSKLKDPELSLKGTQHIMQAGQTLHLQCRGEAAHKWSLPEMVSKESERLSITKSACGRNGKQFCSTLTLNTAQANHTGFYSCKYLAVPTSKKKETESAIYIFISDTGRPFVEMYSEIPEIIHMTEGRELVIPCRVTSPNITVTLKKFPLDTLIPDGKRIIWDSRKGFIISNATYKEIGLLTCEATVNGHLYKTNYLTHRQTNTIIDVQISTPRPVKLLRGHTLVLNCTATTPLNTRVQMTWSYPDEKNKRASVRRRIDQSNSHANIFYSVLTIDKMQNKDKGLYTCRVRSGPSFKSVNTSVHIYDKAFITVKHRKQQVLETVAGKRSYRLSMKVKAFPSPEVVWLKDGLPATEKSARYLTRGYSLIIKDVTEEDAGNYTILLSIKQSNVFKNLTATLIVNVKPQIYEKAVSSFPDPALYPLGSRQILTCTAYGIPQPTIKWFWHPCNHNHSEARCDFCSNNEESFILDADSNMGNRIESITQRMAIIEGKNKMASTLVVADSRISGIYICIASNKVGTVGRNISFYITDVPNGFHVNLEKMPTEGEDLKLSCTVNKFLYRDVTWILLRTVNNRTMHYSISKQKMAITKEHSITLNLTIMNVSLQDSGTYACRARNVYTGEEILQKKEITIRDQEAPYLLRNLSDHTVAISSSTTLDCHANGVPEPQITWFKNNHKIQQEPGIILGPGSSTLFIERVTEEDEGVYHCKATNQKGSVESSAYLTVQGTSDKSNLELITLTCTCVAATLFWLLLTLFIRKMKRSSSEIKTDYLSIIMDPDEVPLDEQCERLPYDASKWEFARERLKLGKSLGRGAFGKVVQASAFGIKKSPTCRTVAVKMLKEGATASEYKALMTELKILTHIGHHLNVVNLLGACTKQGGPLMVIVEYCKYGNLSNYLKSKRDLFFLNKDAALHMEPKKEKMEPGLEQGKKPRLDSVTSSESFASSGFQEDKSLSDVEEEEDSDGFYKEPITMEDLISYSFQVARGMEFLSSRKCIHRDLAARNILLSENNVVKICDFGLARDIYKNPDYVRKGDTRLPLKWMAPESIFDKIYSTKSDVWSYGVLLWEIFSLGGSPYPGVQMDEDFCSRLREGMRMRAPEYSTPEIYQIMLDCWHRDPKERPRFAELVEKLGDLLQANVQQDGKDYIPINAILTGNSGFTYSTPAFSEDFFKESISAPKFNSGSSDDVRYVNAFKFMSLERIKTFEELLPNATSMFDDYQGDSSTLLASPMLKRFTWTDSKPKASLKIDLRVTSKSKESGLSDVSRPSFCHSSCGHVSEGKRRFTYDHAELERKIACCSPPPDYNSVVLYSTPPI
Ribosomal protein S6 kinase alpha-1, sequence (Q15418 whole entry): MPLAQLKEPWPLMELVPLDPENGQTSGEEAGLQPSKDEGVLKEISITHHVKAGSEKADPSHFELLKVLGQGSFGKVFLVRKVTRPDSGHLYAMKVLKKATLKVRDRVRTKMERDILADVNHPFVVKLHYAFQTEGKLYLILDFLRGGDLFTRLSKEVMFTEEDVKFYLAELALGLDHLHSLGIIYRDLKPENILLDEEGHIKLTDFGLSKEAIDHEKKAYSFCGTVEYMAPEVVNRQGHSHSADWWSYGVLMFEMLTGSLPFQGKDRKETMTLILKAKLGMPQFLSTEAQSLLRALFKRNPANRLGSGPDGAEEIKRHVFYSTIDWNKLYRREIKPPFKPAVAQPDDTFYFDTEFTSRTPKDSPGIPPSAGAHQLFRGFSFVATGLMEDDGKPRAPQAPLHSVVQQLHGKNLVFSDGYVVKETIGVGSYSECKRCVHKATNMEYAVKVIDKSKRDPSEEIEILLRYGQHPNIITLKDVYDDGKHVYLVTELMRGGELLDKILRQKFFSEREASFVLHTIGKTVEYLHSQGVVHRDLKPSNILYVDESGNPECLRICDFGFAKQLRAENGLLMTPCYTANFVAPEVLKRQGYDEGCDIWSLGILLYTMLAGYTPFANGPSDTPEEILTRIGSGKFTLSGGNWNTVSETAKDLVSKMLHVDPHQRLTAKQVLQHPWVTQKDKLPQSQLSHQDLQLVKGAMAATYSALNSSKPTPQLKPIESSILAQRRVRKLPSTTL

On to `Cn1cc(-n2cnc3c(NCc4nc5cc(Cl)c(Cl)cc5[nH]4)nc(N4CCOCC4)nc32)cn1`, for which the results for the % of control in [1] and in experiment [2] were -8.31% and 2.69%, respectively.
In [3], `CNC(=O)Nc1ccc(-c2nc(N3CC4CCC(C3)O4)c3cnn(C4CCC5(CC4)OCCO5)c3n2)cc1` displayed a % of inhibition of 8%.
Consider `Cc1cc([C@@H](C)Nc2ccccc2C(=O)O)c2nc(N3CCOCC3)cc(=O)n2c1` [AZD-6482], for which the % of control in experiment [4] was 100%.
For `O=C(NOC[C@H](O)CO)c1ccc(F)c(F)c1Nc1ccc(I)cc1F`, the % of control in [5] came out at 100%.
Consider `CN(C)CCOc1ccc(-c2nc(-c3ccncc3)c(-c3ccc4c(c3)CC/C4=N\O)[nH]2)cc1`, for which the % of control in experiment [6] turned out to be 67%.
As to `CCc1ccccc1C(=O)Nc1n[nH]c2c(C)c(F)c(C3C(C#N)=C(C)N(C)C(C)=C3C#N)cc12` [BAY-3827], the % of control in experiment [7] came to 1.8%.
For `CN1Cc2nccc(-c3cn(C)nc3-c3ccc(F)cc3)c2C1=O`, in experiment [8], the % of inhibition was 12%.
A word on the IC50: it is the point on the concentration scale where inhibition reaches its midpoint. Low values mean inhibition by little substance, high ones a need for much substance. In the case of `COc1cc(Nc2nc(C)cc(-c3cnn4nc(OC)ccc34)n2)cc(C(F)(F)F)c1`, the IC50 in experiment [9] was > 10 µM.
For the compound `C=CC(=O)Nc1cccc(C(=O)Nc2ccc(Nc3cc(-c4[nH]c(SC)nc4C)ccn3)cc2)c1`, the results for the % of control in experiment [10] (at 1 µM) and in experiment [10] (at 5 µM) were 88% and 68%, respectively.
Turning to `COCC(=O)NC/C=C/c1ccc2ncnc(Nc3ccc(Oc4ccc(C)nc4)c(C)c3)c2c1` [CP-724714], the % of control in [11] came to 100%; in [12] it was 89%.
